These are literature values, as cited in US8216786B2, “Genetic polymorphisms associated with cardiovascular diseases, methods of detection and uses thereof” (Celera Corporation, priority 2008, dated 2012).

This series has as its system animal models and myocyte cultures. As to conditions: compared to lipophilic statins; cited from earlier work.

For `CC[C@H](C)C(=O)O[C@H]1C[C@H](O)C=C2C=C[C@H](C)[C@H](CC[C@@H](O)C[C@@H](O)CC(=O)O)[C@H]21` [pravastatin], the myopathic potential result was “low myopathic potential”.
